# Where two headings read alike, the source gives them in different places.
# Assays:
# [1] = tested on: Pseudomonas syringae pv maculicola ES4326 (Psm lux); type: in vivo
# [2] = tested on: Hyaloperonospora arabidopsidis (Hpa) isolate Noco2; experiment: Arabidopsis thaliana resistance to Hpa after Pip/NHP pre-treatment (symptoms, Trypan blue microscopy); type: in vivo; settings: for symptomology of leaves (photographs): 7 days after inoculation; for disease development in the SA-deficient mutant: sid2 mutant
# [3] = tested on: Pseudomonas syringae pv. tabaci (DSM 1856); experiment: Tobacco (Nicotiana tabacum cv Xanthi) resistance to Pseudomonas tabaci after soil-applied Pip/NHP; settings: for disease symptoms (yellowing and wilting) of infiltrated 1° leaves: tobacco 4-leaf stage, 40 ml of 1 mM (40 μmol) via soil 1 d prior to inoculation, 48 h after infection
# Experimental: Plant pots with tobacco at the 4-leaf stage (BBCH growth stage 1004) were supplied with either 40 ml of H2O (mock-treatment; left) or 40 ml of 1 mM Pip or NHP (=40 μmol) 1 d prior to inoculation with a suspension (OD600=0.005, O/N-culture grown at 18° C.) of Pseudomonas tabaci via pressure infiltration. […] Infiltrated 1° leaves from representative plants were cut and photographed 48 h after the initial infection.
# [4] = 1° leaves pressure-infiltrated with 1 mM NHP 24 h before inoculation
compound,measurement,setting,value
"O=C(O)C1CCCCN1O (stereo not shown) [NHP, 1-hydroxypiperidine-2-carboxylic acid]","reduction of bacterial numbers, 2° leaves inoculated (systemic)",[1]; [4],more than 15 fold
same,"reduction of bacterial numbers, Psm lux infiltrated in the pre-treated 1° leaves (local)",[1]; [4],about 8 fold
same,Resistance effect after NHP pre-treatment,"[1]; Arabidopsis thaliana, Pseudomonas syringae",Yes
same,attenuation of Psm lux growth,"[1]; Col-0, ald1, and fmo1 (all genotypes), 10 μmol via soil 1 d before inoculation, 60 hpi",at least one order of magnitude
same,chlorotic symptom development,"[1]; Col-0, ald1, and fmo1, 10 μmol via soil, 72 hpi",lack of the chlorotic symptom development
same,reduction in bacterial numbers compared to mock-treated plants,"[1]; Col-0, 10 μmol NHP via soil 1 day before infection, 54 h post inoculation",about 9 fold
same,reduction in bacterial numbers compared to mock-treated plants,"[1]; Col-0, 10 μmol NHP via soil 3 days before infection, 54 h post inoculation",about 6 fold
same,reduction in bacterial numbers compared to mock-treated plants,"[1]; Col-0, 10 μmol NHP via soil 7 days before infection, 54 h post inoculation",about 3 fold
same,further reduction of bacterial growth compared to plants treated with 10 μmol of NHP,"[1]; Col-0, 100 μmol NHP per pot via soil, 54 h post inoculation",2 fold
same,reduction of bacterial numbers compared to control plants,"[1]; Col-0, 0.1 mM NHP (1 μmol/pot) via soil 24 h prior to Psm lux, 54 h post inoculation",about 2 fold
same,reduction of bacterial numbers compared to mock-treated plants,"[1]; Col-0, 10 mM NHP (100 μmol per pot) via soil 24 h prior to Psm lux, 54 h post inoculation",about 20 fold
same,lower levels of bacteria in leaves compared to control plants,"[1]; Col-0, 10 ml of 1 mM NHP (10 μmol per pot) via soil 24 h prior to Psm lux, 54 h post inoculation",about 11 fold
same,disease symptoms of leaves,"[1]; Col-0, 10 ml of 1 mM NHP via soil 24 h prior to Psm lux",largely symptom-free
same,reduction of bacterial numbers in Psm lux-inoculated 1° leaves,"[1]; Col-0, foliar spray of 1 mM NHP with 0.005% Silwet 24 h before inoculation, 54 h post inoculation",about 12 fold
same,difference in bacterial numbers between control and treated plants,"[1]; Col-0 wild-type (experiment with sid2), 10 μmol via soil, 60 hpi",ten-fold difference
same,bacterial numbers in leaves lower than those of naive plants,"[1]; SA-deficient sid2 mutant, 10 μmol via soil, 60 hpi",about 2.5 fold
same,Resistance effect after NHP pre-treatment,"[2]; Arabidopsis thaliana, Hyaloperonospora arabidopsidis",Yes
same,symptomology of leaves (photographs),"[2]; Col-0, ald1, and fmo1, 10 μmol via soil",completely symptom-free
same,development of oospores,"[2]; Col-0, 10 μmol via soil, 7 dpi",completely inhibited
same,examined leaves that fully prohibited the formation of intercellular hyphae,"[2]; Col-0, 10 μmol via soil, 7 dpi",About 70%
same,macroscopic mildew symptoms,"[2]; Col-0, 10 μmol via soil, 7 dpi",completely free of mildew symptoms
same,occurrence/development of conidiophores on leaves,"[2]; Col-0, 10 μmol via soil, 7 dpi",completely inhibited
same,disease development in the SA-deficient mutant,[2]; 10 μmol via soil,not able to fully prevent disease development
same,Resistance effect after NHP pre-treatment,"[3]; Nicotiana tabacum cv. Xanthi, Pseudomonas syringae pv. tabaci (DSM 1856)",Yes
same,disease symptoms (yellowing and wilting) of infiltrated 1° leaves,[3],almost absent
"O=C(O)[C@@H]1CCCCN1 [Pip, (S)-piperidine-2-carboxylic acid]",bacterial multiplication in leaves of treated compared with control plants,"[1]; Col-0 and ald1, 10 μmol via soil 1 d before Psm lux, 60 hpi",ten-fold lower
same,chlorotic leaf symptoms,"[1]; Col-0 and ald1, 10 μmol via soil, 72 hpi",suppression of the development of chlorotic leaf symptoms
same,average length of intercellular hyphae growing inside leaves,"[2]; Col-0, 10 μmol via soil 24 h before Hpa, 7 dpi",about 50 mm cm^−2
same,development of oospores,"[2]; Col-0, 10 μmol via soil, 7 dpi",fully prevented
same,intercellular hyphae closely encased by dead host cells (trailing necrosis),"[2]; Col-0, 10 μmol via soil, 7 dpi",about 60%
same,length of intercellular hyphae as share of the value for non-pretreated Col-0 plants,"[2]; Col-0, 10 μmol via soil, 7 dpi",~10%
same,macroscopic mildew symptoms,"[2]; Col-0, 10 μmol via soil, 7 dpi",largely symptom-free
same,occurrence/development of conidiophores on leaves,"[2]; Col-0, 10 μmol via soil, 7 dpi",greatly diminished
same,symptomology of leaves (photographs),"[2]; Col-0 and ald1, 10 μmol via soil",only sporadically show small areas of visible mildew symptoms
same,effect on the resistance of fmo1 to Hpa,"[2]; fmo1 mutant, 10 μmol via soil",no effect
same,disease development in the SA-deficient mutant,[2]; 10 μmol via soil,not able to fully prevent disease development
same,disease symptoms (yellowing and wilting) of infiltrated 1° leaves,[3],severely reduced
